Reference: PMC4774911, “Biochemical Screening of Five Protein Kinases from Plasmodium falciparum against 14,000 Cell-Active Compounds” (PLoS ONE, 2016)
Several values for one entry are separate records, joined by “and”; a condition that tells them apart may be missing. Identical values can stand only once.

How the values were obtained:
Experiment in all cases: biochemical
Set-up in all cases: endogenous in cells; host or cells: K562 cell extract; species or system K562 (extract); replicate k of n = 2 (each experiment ID is one independent experiment; two experiment IDs per compound)
Details in all cases: read-out: KDapp
PCTK2 = PCTK2 (Homo sapiens, UniProt Q00537)
Chain of PCTK2 (Q00537 whole entry): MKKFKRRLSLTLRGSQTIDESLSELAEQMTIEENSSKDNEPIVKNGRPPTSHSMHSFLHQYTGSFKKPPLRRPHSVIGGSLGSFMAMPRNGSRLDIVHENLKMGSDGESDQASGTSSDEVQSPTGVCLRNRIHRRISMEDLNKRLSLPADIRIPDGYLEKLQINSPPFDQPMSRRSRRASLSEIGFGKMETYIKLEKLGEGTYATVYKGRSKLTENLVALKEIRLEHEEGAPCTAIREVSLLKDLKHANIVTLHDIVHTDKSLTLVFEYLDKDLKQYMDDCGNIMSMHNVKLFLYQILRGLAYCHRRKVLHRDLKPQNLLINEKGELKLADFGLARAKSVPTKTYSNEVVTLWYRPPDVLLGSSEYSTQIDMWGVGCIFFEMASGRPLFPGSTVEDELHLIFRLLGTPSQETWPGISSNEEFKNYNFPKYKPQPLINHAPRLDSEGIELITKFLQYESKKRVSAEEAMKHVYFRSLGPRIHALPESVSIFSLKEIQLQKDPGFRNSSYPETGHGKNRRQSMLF

MARK2 = MARK2 (Homo sapiens, UniProt Q7KZI7)
Chain of MARK2 (Q7KZI7 whole entry): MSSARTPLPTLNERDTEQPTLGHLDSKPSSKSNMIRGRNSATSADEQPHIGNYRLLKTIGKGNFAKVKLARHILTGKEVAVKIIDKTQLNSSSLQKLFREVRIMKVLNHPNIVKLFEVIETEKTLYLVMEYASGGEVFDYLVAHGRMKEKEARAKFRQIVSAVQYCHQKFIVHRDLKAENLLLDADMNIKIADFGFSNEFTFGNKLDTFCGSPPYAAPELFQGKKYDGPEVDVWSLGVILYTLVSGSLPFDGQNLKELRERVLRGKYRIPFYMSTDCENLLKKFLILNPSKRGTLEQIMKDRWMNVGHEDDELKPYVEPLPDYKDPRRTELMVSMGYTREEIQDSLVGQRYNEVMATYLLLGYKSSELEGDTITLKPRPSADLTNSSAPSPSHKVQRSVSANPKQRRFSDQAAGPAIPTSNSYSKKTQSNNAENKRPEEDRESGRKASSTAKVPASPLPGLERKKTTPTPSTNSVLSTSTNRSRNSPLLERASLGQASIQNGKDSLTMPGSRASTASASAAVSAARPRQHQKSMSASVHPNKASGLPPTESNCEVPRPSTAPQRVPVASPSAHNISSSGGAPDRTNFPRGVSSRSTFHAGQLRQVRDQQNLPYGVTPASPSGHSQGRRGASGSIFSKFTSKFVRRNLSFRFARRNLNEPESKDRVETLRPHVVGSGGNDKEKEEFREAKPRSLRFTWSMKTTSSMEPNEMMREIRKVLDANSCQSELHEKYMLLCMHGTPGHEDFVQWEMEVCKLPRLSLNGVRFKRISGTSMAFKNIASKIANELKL

PIP4K2A = target: T1, PIP4K2A (Homo sapiens, UniProt P48426)
T1 sequence (P48426 1-406): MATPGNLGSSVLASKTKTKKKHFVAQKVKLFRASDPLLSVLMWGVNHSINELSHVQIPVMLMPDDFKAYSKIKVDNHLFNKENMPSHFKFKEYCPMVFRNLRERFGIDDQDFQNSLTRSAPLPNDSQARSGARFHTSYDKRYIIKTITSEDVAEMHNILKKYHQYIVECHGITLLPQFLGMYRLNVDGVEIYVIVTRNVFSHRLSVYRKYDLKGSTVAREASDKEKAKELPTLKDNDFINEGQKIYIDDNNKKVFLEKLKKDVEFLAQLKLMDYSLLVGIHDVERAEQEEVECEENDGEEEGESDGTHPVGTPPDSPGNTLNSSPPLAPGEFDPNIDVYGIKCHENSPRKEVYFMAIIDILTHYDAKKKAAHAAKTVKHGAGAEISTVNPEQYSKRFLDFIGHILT

PRKAA1 = PRKAA1 (Homo sapiens, UniProt Q13131)
Chain of PRKAA1 (Q13131 whole entry): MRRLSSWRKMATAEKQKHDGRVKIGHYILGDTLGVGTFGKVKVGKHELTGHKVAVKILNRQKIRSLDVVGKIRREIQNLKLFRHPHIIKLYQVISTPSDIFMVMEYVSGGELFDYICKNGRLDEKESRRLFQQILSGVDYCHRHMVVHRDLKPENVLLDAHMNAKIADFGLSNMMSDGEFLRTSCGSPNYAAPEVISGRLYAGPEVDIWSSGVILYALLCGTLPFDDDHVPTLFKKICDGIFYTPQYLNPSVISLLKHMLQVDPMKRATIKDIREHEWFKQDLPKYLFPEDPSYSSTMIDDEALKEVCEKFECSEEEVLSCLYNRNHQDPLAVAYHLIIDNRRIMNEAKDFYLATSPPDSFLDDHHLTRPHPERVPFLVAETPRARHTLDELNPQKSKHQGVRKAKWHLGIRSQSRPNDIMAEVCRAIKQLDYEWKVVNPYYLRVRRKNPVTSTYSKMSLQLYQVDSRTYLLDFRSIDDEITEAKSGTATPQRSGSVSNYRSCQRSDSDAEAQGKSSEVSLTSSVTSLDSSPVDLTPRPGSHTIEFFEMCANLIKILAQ

CLK1 = CLK1 (Homo sapiens, UniProt P49759)
BRAF = BRAF (Homo sapiens, UniProt P15056)
Chain of BRAF (P15056 whole entry): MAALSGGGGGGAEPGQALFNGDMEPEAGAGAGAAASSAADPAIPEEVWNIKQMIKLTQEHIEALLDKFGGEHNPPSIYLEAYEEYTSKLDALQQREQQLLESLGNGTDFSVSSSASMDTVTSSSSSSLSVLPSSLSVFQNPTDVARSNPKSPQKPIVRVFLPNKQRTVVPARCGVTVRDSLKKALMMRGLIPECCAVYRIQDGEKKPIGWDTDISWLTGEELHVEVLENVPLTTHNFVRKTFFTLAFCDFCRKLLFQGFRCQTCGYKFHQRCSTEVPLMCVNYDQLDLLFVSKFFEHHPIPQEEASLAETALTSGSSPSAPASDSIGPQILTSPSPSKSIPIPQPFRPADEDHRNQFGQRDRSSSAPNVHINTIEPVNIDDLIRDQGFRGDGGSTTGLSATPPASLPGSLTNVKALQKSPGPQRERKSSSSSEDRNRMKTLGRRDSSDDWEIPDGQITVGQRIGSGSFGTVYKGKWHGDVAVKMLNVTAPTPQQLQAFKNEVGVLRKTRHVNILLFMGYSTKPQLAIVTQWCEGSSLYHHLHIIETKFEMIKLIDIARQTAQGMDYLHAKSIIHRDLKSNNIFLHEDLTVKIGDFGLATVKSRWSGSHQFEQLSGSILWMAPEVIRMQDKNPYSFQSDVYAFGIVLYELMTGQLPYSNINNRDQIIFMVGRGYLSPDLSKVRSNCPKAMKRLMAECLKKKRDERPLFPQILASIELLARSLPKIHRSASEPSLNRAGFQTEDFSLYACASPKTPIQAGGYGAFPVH

MELK = MELK (Homo sapiens, UniProt Q14680)
Chain of MELK (Q14680 whole entry): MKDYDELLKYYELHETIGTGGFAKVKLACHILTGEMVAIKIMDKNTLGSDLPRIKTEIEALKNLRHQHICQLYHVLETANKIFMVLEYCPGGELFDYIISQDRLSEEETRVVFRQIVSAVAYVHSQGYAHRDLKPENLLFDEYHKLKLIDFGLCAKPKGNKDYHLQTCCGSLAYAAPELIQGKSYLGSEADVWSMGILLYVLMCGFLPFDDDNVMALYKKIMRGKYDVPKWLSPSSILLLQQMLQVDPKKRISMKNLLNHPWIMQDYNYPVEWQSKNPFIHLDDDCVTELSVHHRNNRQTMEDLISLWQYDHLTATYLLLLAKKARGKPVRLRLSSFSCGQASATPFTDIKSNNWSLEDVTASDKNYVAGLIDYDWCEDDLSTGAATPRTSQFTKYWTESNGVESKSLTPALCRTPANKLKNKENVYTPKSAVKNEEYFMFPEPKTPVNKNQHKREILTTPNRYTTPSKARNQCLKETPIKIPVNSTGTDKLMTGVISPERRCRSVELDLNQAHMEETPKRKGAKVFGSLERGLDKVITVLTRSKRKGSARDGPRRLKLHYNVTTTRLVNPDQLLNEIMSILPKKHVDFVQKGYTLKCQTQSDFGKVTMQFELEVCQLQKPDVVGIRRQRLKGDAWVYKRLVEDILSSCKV

BUB1 = BUB1 (Homo sapiens, UniProt O43683)
MAP2K2 = MAP2K2 (Homo sapiens, UniProt P36507)
Chain of MAP2K2 (P36507 whole entry): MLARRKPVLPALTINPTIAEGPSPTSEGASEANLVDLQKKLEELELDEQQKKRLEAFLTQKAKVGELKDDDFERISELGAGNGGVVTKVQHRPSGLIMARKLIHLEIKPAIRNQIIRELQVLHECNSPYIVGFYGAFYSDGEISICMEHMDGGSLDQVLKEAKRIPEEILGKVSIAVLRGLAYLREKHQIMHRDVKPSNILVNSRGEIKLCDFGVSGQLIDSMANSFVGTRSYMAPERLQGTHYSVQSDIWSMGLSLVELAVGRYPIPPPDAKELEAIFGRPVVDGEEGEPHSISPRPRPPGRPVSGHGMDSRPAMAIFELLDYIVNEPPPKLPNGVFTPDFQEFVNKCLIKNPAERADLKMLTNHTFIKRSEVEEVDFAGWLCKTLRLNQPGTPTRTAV

CSK = CSK (Homo sapiens, UniProt P41240)
MAPK7 = MAPK7 (Homo sapiens, UniProt Q13164)
Chain of MAPK7 (Q13164 whole entry): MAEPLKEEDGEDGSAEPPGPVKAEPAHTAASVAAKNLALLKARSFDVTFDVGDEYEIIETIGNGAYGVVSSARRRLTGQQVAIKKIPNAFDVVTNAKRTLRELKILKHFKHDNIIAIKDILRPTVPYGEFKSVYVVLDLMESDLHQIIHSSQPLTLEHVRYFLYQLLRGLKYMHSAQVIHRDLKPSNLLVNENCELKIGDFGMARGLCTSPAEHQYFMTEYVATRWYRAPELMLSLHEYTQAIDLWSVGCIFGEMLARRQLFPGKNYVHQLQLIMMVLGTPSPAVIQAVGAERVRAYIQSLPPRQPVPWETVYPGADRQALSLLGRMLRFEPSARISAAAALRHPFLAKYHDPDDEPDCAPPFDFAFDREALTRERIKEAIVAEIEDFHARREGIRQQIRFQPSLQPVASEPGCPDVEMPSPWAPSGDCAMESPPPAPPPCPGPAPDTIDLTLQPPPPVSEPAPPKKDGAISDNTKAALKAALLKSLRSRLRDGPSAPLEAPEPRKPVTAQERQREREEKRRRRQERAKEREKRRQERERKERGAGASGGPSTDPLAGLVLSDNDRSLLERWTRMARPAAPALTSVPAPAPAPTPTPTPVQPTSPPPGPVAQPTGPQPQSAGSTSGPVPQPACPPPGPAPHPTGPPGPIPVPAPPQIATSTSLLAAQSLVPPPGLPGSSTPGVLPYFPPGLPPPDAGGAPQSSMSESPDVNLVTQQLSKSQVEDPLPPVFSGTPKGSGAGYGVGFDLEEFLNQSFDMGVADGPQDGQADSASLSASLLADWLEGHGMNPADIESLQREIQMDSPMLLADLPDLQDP

CSNK1D = CSNK1D (Homo sapiens, UniProt P48730)
Chain of CSNK1D (P48730 whole entry): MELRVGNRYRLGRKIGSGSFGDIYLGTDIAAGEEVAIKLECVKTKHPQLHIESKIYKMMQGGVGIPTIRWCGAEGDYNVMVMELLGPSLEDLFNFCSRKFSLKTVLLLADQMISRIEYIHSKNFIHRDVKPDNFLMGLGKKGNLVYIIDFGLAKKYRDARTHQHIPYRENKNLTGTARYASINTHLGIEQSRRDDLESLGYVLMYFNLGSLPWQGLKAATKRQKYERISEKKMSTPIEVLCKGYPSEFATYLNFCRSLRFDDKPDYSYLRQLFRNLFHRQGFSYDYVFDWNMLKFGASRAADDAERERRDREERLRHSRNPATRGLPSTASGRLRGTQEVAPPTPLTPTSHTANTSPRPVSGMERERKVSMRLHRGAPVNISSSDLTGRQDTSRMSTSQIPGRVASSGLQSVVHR

Row | SMILES | Kd (PCTK2) | Kd (MARK2) | Kd (PIP4K2A) | Kd (PRKAA1) | Kd (CLK1) | Kd (BRAF) | Kd (MELK) | Kd (BUB1) | Kd (MAP2K2) | Kd (CSK) [nM] | Kd (MAPK7) | Kd (CSNK1D)
1 | CN(C)CC(O)COc1ccc(Nc2ncc([N+](=O)[O-])c(Nc3ccccc3O)n2)cc1.O=C(O)C(F)(F)F (stereo not drawn) [TCMDC-141399] | 1140 nM and 1060 nM | 3510 nM | 846 nM and 669 nM | 2630 nM and 2850 nM | 171 nM and 119 nM |  |  |  |  |  |  | 
2 | Cl.NCC1(c2nc(-c3ccc(Cl)c(O)c3)c(-c3ccncc3)[nH]2)CCCCC1 [TCMDC-141154] |  |  |  |  |  | 861 nM and 705 nM | 1680 nM and 1610 nM | 82.5 nM and 58.4 nM | 7880 nM | 2650 | 549 nM and 949 nM | 44 nM and 50.4 nM
3 | CN1CCN(c2ccc(Nc3ncc(C#N)c(Nc4ccccc4C(N)=O)n3)cc2)CC1.Cl [TCMDC-134116] | 57.7 nM and 83.5 nM | 121 nM and 115 nM | 775 nM and 987 nM | 14.1 nM and 18.2 nM | 20.7 nM and 21.1 nM | 1570 nM | 129 nM and 125 nM | 127 nM and 110 nM | 727 nM and 858 nM | 2470 | 140 nM and 190 nM | 1150 nM
